Experimental data: ChEMBL document CHEMBL1147375, “Three New Bromotyrosine-Derived Metabolites of the Sponge Psammaplysilla purpurea” (J Nat Prod, 1993)
≈ marks a conversion by molar mass, not a printed value. Calls of active or inactive are those of the source. The rule behind the calls is not given here.

How the values were obtained:
[1] = test system: Human immunodeficiency virus 1; experiment: Antiviral activity against HIV1 Haitian RF at 1 ug/mL; assay type: functional, organism-based
[2] = test system: HT-29; experiment: Cytotoxicity against human HT-29 cells; assay type: functional, cell-based
[3] = test system: P388; experiment: Cytotoxicity against mouse P388 cells; assay type: functional, cell-based
[4] = test system: Escherichia coli; experiment: Antibacterial activity against Escherichia coli at 100 ug/disk; assay type: functional, organism-based
[5] = test system: KB; experiment: Cytotoxicity against human KB cells; assay type: functional, cell-based
[6] = test system: A549; experiment: Cytotoxicity against human A549 cells; assay type: functional, cell-based
[7] = test system: Staphylococcus aureus; experiment: Antibacterial activity against Staphylococcus aureus at 100 ug/disk; assay type: functional; conditions: read-out: IZ

| SMILES | Activity [1] | IC50 [2] | IC50 [3] | Activity [4] | IC50 [5] | IC50 [6] | zone of inhibition at 100 µg/disc [7] |
| --- | --- | --- | --- | --- | --- | --- | --- |
| COc1ccc(C/C(=N\O)C(=O)NCCc2cc(Br)c(OCCCN)c(Br)c2)cc1Br [APLYSAMINE 3] | inactive | 2 µg/mL (≈ 3.21 µM) | 1 µg/mL (≈ 1.61 µM) | inactive | 5 µg/mL (≈ 8.04 µM) | 2 µg/mL (≈ 3.21 µM) | 10 mm |
| COc1ccc(C/C(=N\O)C(=O)NCCc2cc(Br)c(OCCCNC(=O)CCCCCCCCCCCC(C)C)c(Br)c2)cc1Br [APLYSAMINE 5] | inactive | 2.5 µg/mL (≈ 2.95 µM) | 10 µg/mL (≈ 11.8 µM) | – | 2 µg/mL (≈ 2.36 µM) | 2.5 µg/mL (≈ 2.95 µM) | – |
| Br.COc1c(Br)cc(C/C(=N\O)C(=O)NCCc2cc(Br)c(OCCCN)c(Br)c2)cc1Br [APLYSAMINE 4] | inactive | 2.5 µg/mL | 2.5 µg/mL | inactive | 5 µg/mL | 2.5 µg/mL | 10 mm |
